# Tests used:
# [1] = test system: HCT-116; assay: Antiproliferative activity against human HCT116 cells assessed as reduction in cell growth measured after 72 hrs by CCK8 assay; assay type: functional, cell-based; details: HCT-116, 72 h
# [2] = test system: A549; assay: Antiproliferative activity against human A549 cells assessed as reduction in cell growth measured after 72 hrs by CCK8 assay; assay type: functional, cell-based; details: A549, 72 h
# [3] = test system: MDA-MB-231; assay: Antiproliferative activity against human MDA-MB-231 cells assessed as reduction in cell growth measured after 72 hrs by CCK8 assay; assay type: functional, cell-based; details: MDA-MB-231, 72 h
# [4] = test system: MDA-MB-231; assay: Induction of cell cycle arrest in human MDA-MB-231 cells assessed as accumulation at G1 phase at 1 uM measured after 24 hrs by flow cytometry analysis (reference value: 43.68%); assay type: functional
# [5] = test system: MDA-MB-231; assay: Induction of apoptosis in human MDA-MB-231 cells assessed as apoptotic cells at 5 uM measured after 48 hrs by annexinV-FITC/propidium iodide staining based flow cytometry analysis (reference value: 5.62%); assay type: functional
# [6] = test system: MDA-MB-231; assay: Induction of cell cycle arrest in human MDA-MB-231 cells assessed as accumulation at G2 phase at 1 uM measured after 24 hrs by flow cytometry analysis (reference value: 23.69%); assay type: functional
# [7] = test system: MDA-MB-231; assay: Induction of apoptosis in human MDA-MB-231 cells assessed as apoptotic cells at 2.5 uM measured after 48 hrs by annexinV-FITC/propidium iodide staining based flow cytometry analysis (reference value: 5.62%); assay type: functional
# [8] = test system: MDA-MB-231; assay: Induction of cell cycle arrest in human MDA-MB-231 cells assessed as accumulation at G2 phase at 2 uM measured after 24 hrs by flow cytometry analysis (reference value: 23.69%); assay type: functional
# [9] = test system: MDA-MB-231; assay: Induction of apoptosis in human MDA-MB-231 cells assessed as apoptotic cells at 10 uM measured after 48 hrs by annexinV-FITC/propidium iodide staining based flow cytometry analysis (reference value: 5.62%); assay type: functional
# [10] = test system: MDA-MB-231; assay: Induction of cell cycle arrest in human MDA-MB-231 cells assessed as accumulation at S phase at 1 uM measured after 24 hrs by flow cytometry analysis (reference value: 32.63%); assay type: functional
# [11] = test system: MDA-MB-231; assay: Induction of cell cycle arrest in human MDA-MB-231 cells assessed as accumulation at S phase at 2 uM measured after 24 hrs by flow cytometry analysis (reference value: 32.63%); assay type: functional
# [12] = test system: MDA-MB-231; assay: Induction of apoptosis in human MDA-MB-231 cells assessed as increase in apoptotic cells measured after 48 hrs by annexinV-FITC/propidium iodide staining based flow cytometry analysis; assay type: functional, cell-based
# [13] = test system: HUVEC; assay: Cytotoxicity against HUVEC assessed as inhibition of cell growth measured after 72 hrs by CCK8 assay; assay type: cell-based; details: Homo sapiens
# [14] = test system: MDA-MB-231; assay: Induction of cell cycle arrest in human MDA-MB-231 cells assessed as accumulation at G1 phase at 2 uM measured after 24 hrs by flow cytometry analysis (reference value: 43.68%); assay type: functional
IC50 [1],IC50 [2],IC50 [3],Compound,further results
10.3 µM,33.4 µM,14.3 µM,CC1=NN(c2ccc(Cl)cc2)C(=O)C12C=CC(=O)C=C2c1ccc(C)cc1 (stereo unspecified),–
13.3 µM,38.4 µM,26.9 µM,CC1=NN(c2ccc(Cl)cc2)C(=O)C12C=CC(=O)C=C2c1cccc(C)c1 (stereo unspecified),–
27.1 µM,19.3 µM,91.9 µM,CC1=NN(c2ccccc2)C(=O)C12C=CC(=O)C=C2c1ccc(C)cc1 (stereo unspecified),–
> 100 µM,> 100 µM,> 100 µM,CC1=NN(c2ccc(Cl)cc2)C(=O)C12C=CC(=O)C=C2c1ccccc1 (stereo unspecified),–
> 100 µM,> 100 µM,> 100 µM,CC1=NN(c2ccc(Br)cc2)C(=O)C12C=CC(=O)C=C2c1ccccc1 (stereo unspecified),–
17.8 µM,16.5 µM,27.4 µM,CC1=NN(c2ccccc2)C(=O)C12C=CC(=O)C=C2c1ccccc1 (stereo unspecified),–
> 100 µM,45.4 µM,2.89 µM,CC1=NN(c2ccc(Br)cc2)C(=O)C12C=CC(=O)C=C2c1cccc(C)c1 (stereo unspecified),–
3.74 µM,20.1 µM,22.3 µM,CC1=NN(c2cccc(Cl)c2)C(=O)C12C=CC(=O)C=C2c1cccc(C)c1 (stereo unspecified),–
16.5 µM,46.3 µM,46.6 µM,CC1=NN(c2ccc(C)cc2)C(=O)C12C=CC(=O)C=C2c1ccccc1 (stereo unspecified),–
2.4 to 2.89 µM,9.05 µM,3.82 µM,CC1=NN(c2cccc(Cl)c2)C(=O)C12C=CC(=O)C=C2c1ccc(C)cc1 (stereo unspecified),Activity [4]: 45.59 - 49.59%; Activity [5]: 12.2%; Activity [6]: 21.23%; Activity [7]: 9.7%; Activity [8]: 17.5%; Activity [9]: 47.23%; Activity [10]: 29.18%; Activity [11]: 14.27%; Activity [12]: Dose-dependent effect; IC50 [13]: 5.41 µM; Activity [14]: 68.23%
> 100 µM,16.5 µM,85.8 µM,CC1=NN(c2ccccc2)C(=O)C12C=CC(=O)C=C2c1cccc(C)c1 (stereo unspecified),–
9.71 µM,37 µM,5.11 µM,CC1=NN(c2ccc(C)cc2)C(=O)C12C=CC(=O)C=C2c1ccc(C)cc1 (stereo unspecified),–
10.6 µM,27.4 µM,15.9 µM,CC1=NN(c2ccc(Br)cc2)C(=O)C12C=CC(=O)C=C2c1ccc(C)cc1 (stereo unspecified),–
7 µM,18.8 µM,30.1 µM,CC1=NN(c2cccc(Cl)c2)C(=O)C12C=CC(=O)C=C2c1ccccc1 (stereo unspecified),–
8.34 µM,22.5 µM,19.4 µM,CC1=NN(c2ccc(C)cc2)C(=O)C12C=CC(=O)C=C2c1cccc(C)c1 (stereo unspecified),–

# — ChEMBL document CHEMBL4342438, “Discovery of pyrazolone spirocyclohexadienone derivatives with potent antitumor activity” (Bioorg Med Chem Lett, 2020)
